Measurements published in patent US20200093782A1, “ARIANTS OF 2-[6-(4-CHLOROPHENOXY)HEXYL]-OXIRANE-2-CARBOXYLIC ACID FOR USE IN THE TREATMENT, PREVENTION AND/OR AMELIORATION OF BRAIN DISEASES” (Meta-IQ ApS, priority 2016, published 2020).

Experiments:
[1] = tested on: Male Wistar rats; experiment: Chronic mild stress (CMS) induced depression, sucrose consumption test; format: in vivo, rat
Text: Treatment of stress-induced depression by blocking carnitine palmitoyl transferase 1 Rats were initially exposed to four weeks of CMS and subsequently exposed to stressors for another five weeks combined with drug or vehicle treatment (FIG. 7). The intake of sucrose solution was used in order to determine the depression status among rats. […] Moreover, statistical significant difference was found between Escitalopram and Etomoxir treatment in week two, four and five.
The percentage of animals responding over time receiving Etomoxir, Escitalopram or vehicle was compared (FIG. 8). The criterion for responders was set at 20% increase in intake of sucrose at the respective weeks compared to baseline prior to onset of treatment. The percentage of responding rats to Etomoxir treatment was higher than Escitalopram treatment.
Male Wistar rats were used for the CMS model. The weight of the rats was approximately 200 g when the experiment was initiated. The rats were housed singly with 12 h light/dark cycle and food and water was available ad libitum except when these parameters were applied as stress inducers. The following paragraphs concerning the CMS model was performed according to the protocol by Wiborg et al.
In order to quantify the hedonic state of the animals a sucrose consumption test was performed. The animals were trained in five weeks in order to consume a palatable sucrose solution. […]

[2] = tested on: rats; experiment: Long term memory test (light/dark shock compartment) with or without MK801; format: in vivo, rat; details: MK801, sub cutaneous injection 1 hour before the test
Procedure: Rats are put in a cage where in the dark part (where they like to be) the bedding gives a shock. They are put in the light part during training. The next day the rats are put in the light part again, when long term memory is there, they will not like to go in the dark part (shock compartment).
MK801, blocks the generation of memory.
(§1) Etomoxir was given by sub cutaneous injection 1 hour before the test.

[3] = tested on: C57B16 mice; experiment: Mouse EAE model (MOG 35-55), therapeutic treatment; format: in vivo; details: 1 mg/kg/day s.c. in olive oil for 2 weeks, start ten days after MOG injection
Text: Six week old C57B16 mice were bred and kept at conventional animal facilities at the University of Copenhagen. Female Lewis rats, 2 months old were used for this study.
All animals were weighed and scored clinically on a daily basis. During progression of EAE, leading to motor disabilities, animals had water in a Petri dish and soaked chow for easy intake to ensure sufficient intake of liquid and nutrients. Healthy animals were used as comparison and control of the EAE exposed animals. […]
The animals were monitored daily, weighed and clinically scored according to the following scale (Imrich and Harzer 2001): 0, no clinical signs of EAE; 1, loss of tail tonus; 2, mild paresis in one or both hindlimbs; 3, moderate paresis in one or both hindlimbs; 4, severe paresis or paralysis in one or both hindlimbs; 5, paralysis in one or both hindlimbs and visible paresis in one or both forelimbs, incontinence; 6, moribund. […]
CPT1 Blockers Have a Therapeutic Effect in Rodent Models with EAE. […] The animals were daily tested for body weight and disease score (Disease was scored as follows; 0=no disease, 1=limp tail, 2=hind-limb paresis, 3=hind-limb paralysis, 4=hind/forelimb paralysis, and 5=death). […]

[4] = tested on: rats; experiment: Short term memory test (3 corridors, alternation ratio) with or without MK801; format: in vivo, rat; details: MK801, sub cutaneous injection 1 hour before the test
Procedure: Rats are put in a compartment with 3 corridors. While looking for food, they will first go in 1 corridor, then when no food is found go in the next and when they have a good short term memory, go in the 3rd after that. (this is measured as alternation ratio) MK801 destroys short term memory. Etomoxir restores short term memory.
as §1

[5] = tested on: rats; experiment: Sucrose consumption in rats after drinking the drug (test of crossing the BBB); format: in vivo, rat
Procedure: First rats are given R(+)-etomoxir ethyl ester formulated water (4 mg/day) every day for 20 days. Then once a week the sucrose consumption was measured. This study is designed to test is R(+)-etomoxir ethyl ester reaches the brain and therefore is it can cross the blood-brain-barrier (BBB).
Blocking CPT-1 in hypothalamus (applied in the drinking water) […] food intake.

[6] = tested on: Lewis rats; experiment: Rat EAE model (MBP in CFA); format: in vivo

Row | SMILES | percentage of responding (healthy) rats ([1]; 5 weeks of treatment with continued stress, responder = 20% increase in sucrose intake vs baseline) [%] | intake of sucrose solution compared to vehicle group ([1]; five weeks of i.p. daily treatment under stress, Etomoxir 4 mg/kg, Escitalopram 5 mg/kg) | animals with restored long term memory [2] [%] | symptom-free animals at the end of the study [3] [%] | short term memory [4] | sucrose consumption ([5]; 4 mg/day in drinking water, every day for 20 days, measured once a week) | crossing of the blood-brain-barrier (BBB) ([5]; oral (drinking water), concluded from increased sucrose consumption) | therapeutic effects when started at day 1 or day 5 ([6]; treatment from day 1 or day 5 after induction, compared with placebo) | disease- and symptom-free rats ([6]; treatment started at day 7 after induction, read at day 11 (end of study)) [%]
1 | CN(C)CCC[C@@]1(c2ccc(F)cc2)OCc2cc(C#N)ccc21 [Escitalopram] | 57 | no significant difference |  |  |  |  |  |  | 
2 | CCOC(=O)[C@@]1(CCCCCCOc2ccc(Cl)cc2)CO1 [R(+)-etomoxir ethyl ester, R(+)-2-[6-(4-chlorophenoxy)hexyl]-oxirane-2-carboxylic acid ethyl ester] |  |  | 40 | 52 | restores the animal's short term memory | increased sucrose consumption | can cross the blood-brain-barrier (BBB) and reach the brain | significantly better therapeutic effects compared to IFNb | 25
